The text below walks through data of paper PMC6271697, “Anticancer Activities of Polyynes from the Root Bark of Oplopanax horridus and Their Acetylated Derivatives” (Molecules, 2014).

Where “and” joins values, the source holds several entries; their conditions need not be identical. Equal values may be shown once. Read-outs that look alike come from different tables or passages of the source. A value given as a limit tells only on which side of the number the result lay.

Broadly, the IC50 is the concentration at which inhibition is half-maximal.

What all share (assay type): cell-based, human
In one assay the test system is A549 cells. Description: MTT cell viability assay, A549 cells. The conditions noted are these: for IC50: read-out: IC50 A549; for antiproliferative effect on A549 cells (in words): concentrations 1–300 µM. As for the experimental part: (§1) The human breast cancer cell lines MCF-7, MDA-MB-231, human hepatocellular liver cell line HepG2 and human lung carcinoma epithelial cells A549 were purchased from American Type Culture Collection (ATCC, Manassas, VA, USA). Normal human hepatic LO2 cells were obtained from the Institute of Cell Biology, Academic Sinica (Shanghai, China). The cells were grown in an atmosphere of 5% CO2 at 37 °C in RPMI 1640 medium supplemented with 10% fetal bovine serum, 100 U/mL penicillin and […] streptomycin.
(§2) The viability of cells was measured by a colorimetric MTT assay. Briefly, 1 × 10^4 cells/well in 96-well microplates were exposed to different concentration of polyynes and their acetylated derivatives respectively for 24 h incubation, following addition of 20 μL MTT solution (4 mg/mL) to each well for another 4 h incubation at 37 °C. Finally, the medium was removed and replaced with 100 μL dimethyl sulfoxide which was added to dissolve the dye crystal presented in cells. The absorbance was recorded at 570 nm using a microplate reader (1420 Multilabel counter victor^3, Perkin-Elmer, Waltham, MA, USA). The results were expressed as ratio of absorbance between treatments and control cells (solvent vehicle set at 100%). Four replicate wells were tested per assay which was repeated three times.

In the next assay the test system is MCF-7 cells. In words: MTT cell viability assay, MCF-7 cells. The conditions noted are these: for IC50: read-out: IC50 MCF-7; for antiproliferative effect on MCF-7 cells (in words): concentrations 1–300 µM. As for the experimental part:
as §1, §2
On the technique in general: Tetrazolium dyes change colour on reduction, which living cells bring about.

The next assay deals with HepG2 cells. Description: MTT cell viability assay, HepG2 cells. Conditions: for IC50: read-out: IC50 HepG2; for antiproliferative effect on HepG2 cells (in words): concentrations 1–300 µM. On the procedure: as §1, §2
In the next assay the test system is LO2 cells. In words: MTT cell viability assay, normal hepatic LO2 cells. The conditions noted are these: read-out: IC50 LO2. As for the experimental part:
as §1, §2

The subject of a further assay is MDA-MB-231 cells. Description: MTT cell viability assay, MDA-MB-231 cells. Conditions: for IC50: read-out: IC50 MDA-MB-231. On the procedure: as §1, §2
The mark [1] stands for this setting: normal human hepatic cells, MTT, 24 h incubation.
Where [2] appears, read: Homo sapiens, A549, MTT, 24 h incubation.
[3] abbreviates: Homo sapiens, MCF7, MTT, 24 h incubation.
The mark [4] stands for this setting: Homo sapiens, HepG2, MTT, 24 h incubation.
Where [5] appears, read: L02, normal human hepatic cells, MTT, 24 h incubation.
Where [6] appears, read: Homo sapiens, MDA-MB-231, MTT, 24 h incubation.

Take “(11S,16S,Z)-Octadeca-9,17-dien-12,14-diyne-1,11,16-triyl triacetate [OHR-8]”: the IC50 was above 300 µM in the assay with A549 cells (MTT, 24 h incubation); above 300 µM with MCF-7 cells (MTT, 24 h incubation); 100 to 300 µM in the assay with HepG2 cells (MTT, 24 h incubation); above 300 µM with LO2 cells (setting [1]); 19.6 ± 6.9 µM in the assay with MDA-MB-231 cells (MTT, 24 h incubation).

“(11S,16S,Z)-16-Hydroxyoctadeca-9,17-dien-12,14-diyne-1,11-diyl diacetate [OHR-10]”: the IC50 is 101 ± 7.3 µM in the assay with A549 cells (MTT, 24 h incubation); 94.3 ± 6.1 µM in the assay on MCF-7 cells (MTT, 24 h incubation); 78.4 ± 6.5 µM with HepG2 cells (MTT, 24 h incubation); 100 to 300 µM in the assay with LO2 cells (setting [1]); 56.7 ± 6.9 µM with MDA-MB-231 cells (MTT, 24 h incubation).

Consider “(11S,16S,Z)-11-Hydroxyoctadeca-9-en-12,14-diyne-1,16-diyl diacetate [OHR-11]”, for which the IC50 is 98.2 ± 17.5 µM with A549 cells (MTT, 24 h incubation); 78.1 ± 3.4 µM with MCF-7 cells (MTT, 24 h incubation); 77 ± 9.5 µM with HepG2 cells (MTT, 24 h incubation); 93.1 ± 14 µM in the assay with LO2 cells (setting [1]); 51.5 ± 8.4 µM with MDA-MB-231 cells (MTT, 24 h incubation).

With `C=C[C@H](O)C#CC#C[C@@H](O)/C=C\CCCCCCCCOC(C)=O` [OH-3, (11S,16S,Z)-11,16-Dihydroxyoctadeca-9,17-dien-12,14-diynyl acetate], the half-inhibitory concentration (IC50) is 98 ± 6.3 µM in the assay on A549 cells (setting [2]); 93.6 ± 6.1 µM with MCF-7 cells (setting [3]); 47.2 ± 5.9 µM in the assay on HepG2 cells (setting [4]); 90.3 ± 6.4 µM in the assay with LO2 cells (setting [5]); 16.5 ± 2.2 µM in the assay on MDA-MB-231 cells (setting [6]).

Take “(3S,8S,Z)-8-Hydroxyheptadeca-1,9-dien-4,6-diyn-3-yl acetate [OHR-6]”: the IC50 was found to be 38.5 ± 6.2 µM in the assay with HepG2 cells (MTT, 24 h incubation); 46.1 ± 11.7 µM in the assay with LO2 cells (setting [1]); 36.2 ± 13.4 µM with MDA-MB-231 cells (MTT, 24 h incubation).

Turning to “(3S,8S,Z)-3,18-Dihydroxyoctadeca-1,9-dien-4,6-diyn-8-yl acetate [OHR-15]”, the IC50 in the assay on A549 cells (MTT, 24 h incubation) was above 300 µM; with MCF-7 cells (MTT, 24 h incubation), above 300 µM; in the assay with HepG2 cells (MTT, 24 h incubation) it was above 300 µM; in the assay on LO2 cells (setting [1]) it was above 300 µM; with MDA-MB-231 cells (MTT, 24 h incubation), 100 to 300 µM. Moreover, the “antiproliferative effect on A549 cells (in words)” value with A549 cells was “no cytotoxicity”. Also, the “antiproliferative effect on MCF-7 cells (in words)” value with MCF-7 cells is listed as “no cytotoxicity”. For the same compound, in the assay with HepG2 cells, the “antiproliferative effect on HepG2 cells (in words)” value is on record as “no cytotoxicity”.

For the compound `CC[C@H](O)C#CC#C[C@@H](O)/C=C\CCCCCCCCO` [OH-6, (11S,16S,Z)-Octadeca-9-en-12,14-diyne-1,11,16-triol], the IC50 in the assay on A549 cells (setting [2]) was determined as 85.7 ± 13.2 µM; in the assay with MCF-7 cells (setting [3]), 106 ± 13.2 µM; in the assay on HepG2 cells (setting [4]), 45.3 ± 6.3 µM; in the assay on LO2 cells (setting [5]), 90.8 ± 4 µM; with MDA-MB-231 cells (setting [6]) it was 55.7 ± 11.8 µM.

On to “(3S,8S,Z)-18-Hydroxyoctadeca-9-en-4,6-diyne-3,8-diyl diacetate [OHR-13]”, for which the IC50 in the assay on A549 cells (MTT, 24 h incubation) was above 300 µM; in the assay on MCF-7 cells (MTT, 24 h incubation), above 300 µM; with HepG2 cells (MTT, 24 h incubation), above 300 µM; with LO2 cells (setting [1]), above 300 µM; in the assay with MDA-MB-231 cells (MTT, 24 h incubation), 137 ± 28.4 µM. For the same compound, in the assay on A549 cells, the “antiproliferative effect on A549 cells (in words)” value was “no cytotoxicity”. Moreover, the “antiproliferative effect on MCF-7 cells (in words)” value with MCF-7 cells was “no cytotoxicity”. Further, the “antiproliferative effect on HepG2 cells (in words)” value with HepG2 cells is given as “no cytotoxicity”. Moreover, the “concentration showing some antiproliferative effects on MDA-MB-231 cells” value in the assay with MDA-MB-231 cells is “about 150 µM”.

In the case of “(3S,8S,Z)-8-Hydroxyheptadeca-9-en-4,6-diyn-3-yl acetate [OHR-4]”, the IC50 in the assay on A549 cells (MTT, 24 h incubation) is 31.4 µM and 33.3 µM; with MCF-7 cells (MTT, 24 h incubation), 28 ± 2.9 µM; with HepG2 cells (MTT, 24 h incubation) it was 59.5 ± 3.1 µM; in the assay with LO2 cells (setting [1]) it was 34.3 ± 1.5 µM; in the assay with MDA-MB-231 cells (MTT, 24 h incubation), 23.4 ± 3.2 µM.

In the case of `CCCCCCC/C=C\[C@H](O)C#CC#C[C@@H](O)CC` [OH-2, (3S,8S,Z)-Heptadeca-9-en-4,6-diyne-3,8-diol], the IC50 in the assay with A549 cells (setting [2]) stood at 44.1 ± 9.4 µM; in the assay with MCF-7 cells (setting [3]) it was 27.5 ± 2.2 µM; in the assay with HepG2 cells (setting [4]), 38.4 ± 7.5 µM; in the assay on LO2 cells (setting [5]), 30.2 ± 4.8 µM; with MDA-MB-231 cells (setting [6]), 14.7 ± 2.7 µM.

For “(3S,8S,Z)-18-Hydroxyoctadeca-1,9-dien-4,6-diyne-3,8-diyl diacetate [OHR-14]”, the IC50 with A549 cells (MTT, 24 h incubation) was above 300 µM; in the assay with MCF-7 cells (MTT, 24 h incubation) it was above 300 µM; with HepG2 cells (MTT, 24 h incubation) it was 150 to 300 µM; with LO2 cells (setting [1]) it was above 300 µM; in the assay on MDA-MB-231 cells (MTT, 24 h incubation), 156 ± 35.5 µM. In addition, the “antiproliferative effect on A549 cells (in words)” value in the assay on A549 cells is “no cytotoxicity”. Besides, the “antiproliferative effect on MCF-7 cells (in words)” value in the assay on MCF-7 cells is “no cytotoxicity”. Besides, in the assay with HepG2 cells, the “antiproliferative effect on HepG2 cells (in words)” value is given as “no cytotoxicity”. Besides, the “concentration showing some antiproliferative effects on MDA-MB-231 cells” value in the assay on MDA-MB-231 cells is given as “about 150 µM”.

As for `C=C[C@@H](C#CC#C[C@@H](O)/C=C\CCCCCCCCOC(C)=O)OC(C)=O` [OHR-9], the IC50 amounted to 83.1 ± 8.4 µM in the assay with A549 cells (setting [2]); 81.3 ± 1 µM in the assay on MCF-7 cells (setting [3]); 59.9 ± 3 µM in the assay with HepG2 cells (setting [4]); 86.2 ± 11.3 µM with LO2 cells (setting [5]); 52 ± 7.5 µM with MDA-MB-231 cells (setting [6]).

Take `C=C[C@H](O)C#CC#C[C@@H](O)/C=C\CCCCCCC` [OH-1, (3S,8S,Z)-Heptadeca-1,9-dien-4,6-diyne-3,8-diol]: the IC50 came out at 23.5 ± 4.1 µM in the assay on A549 cells (Homo sapiens, A549, 24 h); 15.3 ± 0.3 µM in the assay on MCF-7 cells (Homo sapiens, MCF7, 24 h); 7.7 ± 1.3 µM with HepG2 cells (Homo sapiens, HepG2, 24 h); 8.7 ± 0.5 µM with LO2 cells (Homo sapiens, L02, 24 h); 4.7 ± 1.4 µM in the assay with MDA-MB-231 cells (Homo sapiens, MDA-MB-231, 24 h). In the assay with A549 cells (Homo sapiens, A549, read-out: A549 cell growth inhibited), the inhibition at 60 µM was found to be 95.6%.

On to `CC[C@H](O)C#CC#C[C@H](/C=C\CCCCCCCCOC(C)=O)OC(C)=O` [OHR-12, (11S,16S,Z)-16-Hydroxyoctadeca-9-en-12,14-diyne-1,11-diyl diacetate], for which the IC50 in the assay on A549 cells (setting [2]) was 100 to 300 µM; with MCF-7 cells (setting [3]), 90.7 ± 0.3 µM; in the assay with HepG2 cells (setting [4]), 100 to 300 µM; with LO2 cells (setting [5]) it was 100 to 300 µM; with MDA-MB-231 cells (setting [6]) it was 77.7 ± 1.9 µM.

Regarding “(11S,16S,Z)-Octadeca-9-en-12,14-diyne-1,11,16-triyl triacetate [OHR-7]”, the IC50 in the assay on A549 cells (MTT, 24 h incubation) is above 300 µM; in the assay on MCF-7 cells (MTT, 24 h incubation) it was above 300 µM; in the assay on HepG2 cells (MTT, 24 h incubation), above 300 µM; in the assay on LO2 cells (setting [1]) it was above 300 µM; in the assay with MDA-MB-231 cells (MTT, 24 h incubation) it was above 300 µM.

Take `CC[C@H](O)C#CC#C[C@@H](O)/C=C\CCCCCCCCOC(C)=O` [OH-4, (11S,16S,Z)-11,16-Dihydroxyoctadeca-9-en-12,14-diynyl acetate]: the IC50 in the assay with A549 cells (setting [2]) is 109.9 ± 0.8 µM; with MCF-7 cells (setting [3]) it was 100 ± 7 µM; in the assay with HepG2 cells (setting [4]), 69.1 ± 1.8 µM; in the assay with LO2 cells (setting [5]), 91.9 ± 13.4 µM; in the assay on MDA-MB-231 cells (setting [6]) it was 87.8 ± 7.9 µM.

With `C=C[C@H](O)C#CC#C[C@@H](O)/C=C\CCCCCCCCO` [OH-5, (11S,16S,Z)-Octadeca-9,17-dien-12,14-diyne-1,11,16-triol], the IC50 in the assay on A549 cells (setting [2]) was 150 to 300 µM; in the assay on MCF-7 cells (setting [3]), 94.4 ± 7.3 µM; with HepG2 cells (setting [4]), 48.3 ± 5.9 µM; in the assay with LO2 cells (setting [5]) it was 91 ± 9.5 µM; with MDA-MB-231 cells (setting [6]), 49 ± 10.9 µM.
